Experimental data taken from patent publication US20250282798A1, “HETEROARYL-SUBSTITUTED BICYCLIC COMPOUND AND USE THEREOF” (Medshine Discovery Inc., priority 2022, published 2025).

How the values were obtained:
Format in all cases: in vitro ADME
[1] = system: MDR1 (P-glycoprotein); assay: Permeability evaluation in MDR1-MDCK II cells; details: dog, pH 7.4, 2.00 μM, 150 minutes
Experimental: (§1) Cell line: The MDR1-MDCK II cell line authorized by Piet Borst's laboratory at the Netherlands Cancer Research Institute was used in this assay as an in vitro model for the permeability evaluation assay. The cells were inoculated in a Transwell-96 well cell plate at a density of 2.3×10^5 cells/cm^2, and cultured in a carbon dioxide incubator for 4-7 days before use in the transport assay.
(§2) The administration concentration of the test sample was 2.00 μM.
(§3) Test direction and number of parallel samples: bidirectional A-B and B-A, 2 parallels
(§4) Transport buffer (TB): HBSS solution containing 10 mM HEPES (pH 7.40±0.05)
(§5) Incubation conditions: 37±1° C., 5% CO2, incubated for 150 minutes
(§6) Control compounds: Nadolol and metoprolol were used as low-permeability and high-permeability control compounds. Digoxin was used as a substrate of P-glycoprotein. The administration concentration of nadolol and metoprolol was 2.00 μM, and the administration concentration of digoxin was 10.0 μM.
(§7) After the transport assay, the integrity of the MDR1-MDCK II cell layer was assayed by the Lucifer Yellow Rejection Assay. The remaining solution in the apical and basolateral wells was removed. 75 μL of TB containing 100 μM Lucifer Yellow was added to the apical well, and 250 μL of TB was added to the basolateral well. The cell plate was incubated in a cell culture incubator at 37±1° C., 5% CO2 and saturated humidity for 30 minutes. Then, 20 μL of sample was taken from the apical well and mixed with 60 μL of TB, and 80 μL of sample was taken from the basolateral well. The relative fluorescence unit (RFU) was measured at 425/528 nm (excitation/emission) using a microplate reader.
(§8) In this assay, the sample analysis of the test samples and control compounds of nadolol, metoprolol, and digoxin was performed by liquid chromatography-tandem mass spectrometry (LC-MS/MS). The retention time of the analytes and internal standards, chromatogram acquisition, and chromatogram integration were processed using the software Analyst (Sciex, Framingham, MA, USA). The sample analysis was semi-quantitatively determined using the peak area of analyte and the peak area of internal standard.
(§9) VR is the volume of the receiver end solution (0.075 mL for side A, and 0.25 mL for side B); Area is the relative surface area of the cell monolayer (0.0804 cm2); Time is the incubation time (9000 s); C0 is the peak area ratio of the compound at the administration end; VD is the volume of the administration end (0.075 mL for side A, and 0.25 mL for side B); CD and CR are the peak area ratios of the compound at the administration end and the receiver end, respectively.

[2] = Permeability evaluation in MDR1-MDCK II cells; details: dog
Experimental: as §1, §2, §3, §4, §5, §6, §7, §8, §9

[3] = system: MDR1-MDCK II cell line; assay: Permeability evaluation in MDR1-MDCK II cells
Experimental: as §1, §2, §3, §4, §5, §6, §7, §8, §9

| SMILES | efflux ratio at 150 min, 2 μM [1] | Papp A→B at 150 min, 2 μM ([2]; pH 7.4, 2.00 μM, 150 minutes) | Papp B→A at 150 min, 2 μM ([2]; pH 7.4, 2.00 μM, 150 minutes) | Papp at 150 min, 2 μM ([2]; pH 7.4, class by Papp, read-out: Conclusion of the permeability) | Efflux ratio ([3]; 2.00 μM, 150 minutes) | Permeability Papp A to B ([3]; 2.00 μM, 150 minutes) | Permeability Papp B to A ([3]; 2.00 μM, 150 minutes) | Conclusion of the permeability ([3]; class by Papp) |
| --- | --- | --- | --- | --- | --- | --- | --- | --- |
| O=C1NCc2c(-c3cnc4cc(F)ccn34)ccc(Nc3ccc4c(n3)OC[C@@H]3COCCN43)c21 [Compound 8] | 7.19 | 1.97 ×10⁻⁶ cm/s | 14.2 ×10⁻⁶ cm/s | 1 to 5.5 ×10⁻⁶ cm/s |  |  |  |  |
| Cn1ccc2c(-c3ncc(Nc4ccc5c(n4)OC[C@@H]4COCCN54)c4c3CNC4=O)ccnc21 [Compound 4] |  |  |  |  | 4.97 | 5.20 10^−6 cm/s | 25.84 10^−6 cm/s | Medium (Medium permeability 1.0 < Papp < 5.5 (×10^−6 cm/s)) |
